Experimental data as given in article PMC9747717, “A novel small molecule inhibitor of human Drp1” (Scientific Reports, 2022).

What was measured:
[1] = tested on: Drp1 wild type MEFs; assay: Mitochondrial morphology analysis in Drp1 wild type MEF; assay type: cell-based, mouse; settings: statistical significance at 10 and 50 µM
Experimental: Human foreskin fibroblasts and Drp1 wildtype and KO MEF (kindly provided by Professor Hiromi Sesaki, Johns Hopkins University, USA)[28],[29] were transduced with pAS2.EYFP.puro lentiviruses (RNAiCore, Academia Sinica, Taiwan) carrying the mitochondrial-targeted EGFP sequence as described in Kalkhoran et al.[30]. Cells were then treated with DRP1i27 (5, 10 or 50 µM) or 0.1% DMSO vehicle control for 24 h.
(§1) Mitochondrial morphology in HL-1 cells were visualised by immunostaining of mitochondrial Hsp60 antibody (Abcam, MA, USA). Images were acquired using Olympus BX60 fluorescence microscope at 600 × magnification and analysed using Fiji imaging software (ImageJ v1.53c). Cells were categorised into predominantly (> 50%) having fused or fragmented mitochondria. At least 100 cells were analysed for each treatment group.

[2] = molecular target: T1, human Drp1 isoform 3 (Homo sapiens, UniProt O00429); assay: Drp1 GTPase activity, colorimetric malachite green assay; assay type: biochemical
T1 construct: His tag; made in house; host or cells: E. coli Rosetta (DE3), pET21b vector
Experimental: The GTPase activity of Drp1, which is required for the latter to mediate mitochondrial fission, was examined using the colorimetric GTPase assay kit (Innova Biosciences, Cambridge, UK) according to the manufacturer’s instructions. Compounds were diluted in DMSO (all with a final concentration of 0.1% DMSO). Recombinant human Drp1 protein isoform-3 (final concentration 0.25 ng/µL) was diluted in assay buffer containing 50 mM Tris HCl (pH 7.5) and 2.5 mM MgCl2, followed by incubation with compounds for 15 min at 37 °C in a 96 well plate. 0.5 mM GTP, diluted in assay buffer, was then added into the mixture followed by incubation at 37 °C for 30 min.
Upon binding to Drp1, GTP is hydrolysed into GDP and free phosphate (Pi)[24]. Therefore, the degree of GTPase inhibition was assessed by measuring the concentration of Pi released into the assay buffer, which is detected by a malachite green-based dye. The intensity of Pi-dye complex was assessed by measuring the light absorbance at 635 nm wavelength using a microplate reader (BenchMark Plus, MS, USA). Absorbance of each experimental group was normalised to the vehicle control (DMSO).

[3] = tested on: human iPSC-derived cardiomyocytes; assay: Doxorubicin-induced cardiomyocyte injury, LDH release; assay type: cell-based; settings: DRP1i27 50 µM in combination with doxorubicin 5 µM, 2 days
Experimental: Cardiomyocytes were derived from human induced pluripotent stem cells (iPSCs, CERA007c6 cell line) as previously described with modifications[26],[27]. Briefly, human iPSCs were seeded onto Matrigel (Corning) coated plates at a density of 1.25 × 10^5 cells/cm^2 in TeSR-E8 medium supplemented with 10 μM Y−27632 (Abcam). After 48 h (cells ~ 90% confluent) (day 0), medium was replaced with RPMI-1640 basal medium (Thermo Fisher Scientific) containing B-27 without insulin supplement (Thermo Fisher Scientific), growth factor reduced Matrigel (1:60 dilution) and 10 μM CHIR99021 (Cayman Chemical). At day 1, medium was replaced with RPMI 1640 basal medium containing B-27 without insulin supplement. […]
Enriched cardiomyocytes were replated onto Matrigel-coated 48-well plates at a cell density of 5 × 10^4 cells/cm^2 for 2 days. […] LDH levels in the conditioned media were assessed using a colorimetric CyQUANT LDH Cytotoxicity Assay Kit (Thermo Fisher Scientific) according to manufacturer’s protocol. […] Following the incubation at room temperature for 30 min in the dark, 50 μL of Stop Solution was added and absorbance was measured at 490 nm and 680 nm on a microplate spectrophotometer (Bio-Rad). All readings were then corrected for the background signal from the culture media and expressed as fold change.

[4] = tested on: HL-1 cells; assay: Mitochondrial morphology in HL-1 cells under simulated ischaemia-reperfusion injury; assay type: cell-based, Murine; settings: 50 µM, DMSO 63.14 ± 8.12%
Experimental: HL-1 cells were plated in 24-well plate pre-coated with 5 μg/mL human fibronectin (Merck Millipore, MA, USA) in 0.02% porcine gelatin solution (Sigma-Aldrich, MA, USA). Cells were maintained in Claycomb media (Sigma-Aldrich) supplemented with 0.1 mM (±)-norepinephrine (+)-bitartrate salt (Sigma-Aldrich), 2 mM GlutaMAX (Thermo Fisher Scientific, MA, USA), 100 μg/mL penicillin/streptomycin (Thermo Fisher Scientific) and 10% non-heat inactivated foetal bovine serum (FBS) (Bovogen Biologicals, Victoria, Australia). The simulated ischaemia–reperfusion injury was performed as described in Rosdah et al.[25]. […] Cell death was determined by staining with 1 μg/mL propidium iodide and 3 μg/mL Hoechst 33258. The number of dead cells (propidium iodide positive) was counted and expressed as a percentage over total number of cells (Hoechst 33258 positive). At least 100 cells were counted per group for each independent experiment.
as §1, with “Cells were categorised into predominantly (> 50%) having fused or fragmented mitochondria.” left out

T1 sequence (O00429 1-699 isoform O00429-4): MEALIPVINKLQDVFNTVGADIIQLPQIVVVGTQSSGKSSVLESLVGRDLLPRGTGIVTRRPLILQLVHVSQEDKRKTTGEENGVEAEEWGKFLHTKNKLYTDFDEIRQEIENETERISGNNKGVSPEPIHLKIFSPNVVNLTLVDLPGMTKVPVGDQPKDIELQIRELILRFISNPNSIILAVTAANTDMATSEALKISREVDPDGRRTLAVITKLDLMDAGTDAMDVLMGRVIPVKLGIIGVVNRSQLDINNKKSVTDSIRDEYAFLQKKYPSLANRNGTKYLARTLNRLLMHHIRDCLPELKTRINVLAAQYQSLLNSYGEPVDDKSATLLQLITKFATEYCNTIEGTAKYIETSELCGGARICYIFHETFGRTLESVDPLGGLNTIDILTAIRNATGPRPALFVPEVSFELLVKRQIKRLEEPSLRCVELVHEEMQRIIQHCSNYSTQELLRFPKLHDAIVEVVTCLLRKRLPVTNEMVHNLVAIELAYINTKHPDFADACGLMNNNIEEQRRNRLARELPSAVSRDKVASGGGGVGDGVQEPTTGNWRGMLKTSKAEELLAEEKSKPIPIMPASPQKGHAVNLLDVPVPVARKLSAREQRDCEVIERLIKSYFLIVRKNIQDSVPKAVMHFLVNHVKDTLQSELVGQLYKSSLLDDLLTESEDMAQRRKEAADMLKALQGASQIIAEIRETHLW

Structure (SMILES): Cc1nc[nH]c1CN1C[C@@H]2CC[C@H](C1)N(Cc1ccc(-c3cc[nH]n3)o1)C2 [DRP1i27]
- cellular networks of mitochondria [1]: dose-dependent response
- inhibition of GTPase activity of human Drp1 ([2]; 5 µM): statistically significant reduction
- inhibition of the conversion of GTP to GDP ([2]; 5–50 µM): trend of inhibition
- LDH release [3]: 3.13 ± 0.16 fold change
- percentage of cells with fragmented mitochondria [4]: 36.62 ± 7.37%
